Like-named read-outs stand apart in the source and are kept apart here.
Assays:
[1] = system: PC3 prostate cancer cells; details: PC3 xenograft
Method: (§1) Human cell lines (A549 lung carcinoma, PC3 and DU145 prostatic carcinoma, and potentially others) were used. Mice received XRT (whole body radiation) up to 2 days prior to inoculation to minimize tumor regression due to residual immunological systems. The animal was administered a sub-lethal dose of whole body radiation of up to 4.5 Gy. The published literature indicates the LD50/30 dose for whole body radiation in the mouse to be 6.2 Gy. At the time of tumor implantation, mice were anesthetized by isoflurane inhalation or by IP injection of a ketamine/xylazine cocktail. Using vernier calipers, tumor size was measured; and tumor volume calculated on day 0 of study, at a minimum of 2-3 times/week and immediately prior to scheduled sacrifice. The tumor volume was estimated using the formula for a prolate ellipsoid: V=[(length)×(width)^2]/2 or hemi-ellipsoid: V=π/6×(length)×(width)×(height). When tumors reached a predetermined tumor volume animals were divided into treatment groups followed by test/control article dosing. Maximum allowable tumor burden prior to sacrifice is a mean surface diameter of 20 mm or not more than 10% of the animal's body weight as described in the NIH tumor burden guidelines for mice.
In this example, the ionophore was formulated in 5% mannitol.

[2] = system: DU145 prostate cancer cells; details: DU145 xenograft, intravenous 60 μmol/kg q.d.×4, formulated in 30% THPB-P beta-cyclodextrin vehicle, FIG. 31
Method: as §1

[3] = system: A549 human lung cancer cells; details: A549 xenograft, FIG. 28
Method: as §1

[4] = mouse, in vivo
[5] = zinc binding motif, well known; cited from earlier work
cancer cells [6] = assay: intracellular free zinc in cancer cells; format: cell-based; details: previously found
Method: The concentration of intracellular free zinc is assessed using the ion-specific fluorescent probe, FluoZin-3-AM-(FluoZin-3, Molecular Probes, Inc.). […] Following treatment, cells are isolated by centrifugation. Cell pellets are washed and re-suspended in a solution of 0.5% BSA in PBS. An aliquot of 10^6 cells (200 μL) is removed, centrifuged, and treated with FluoZin-3 reaction buffer An aliquot of the cell suspension is supplemented with 2 μg/mL propidium iodide (Sigma Biochemical), incubated for 5 minutes, and subjected to two-parameter flow cytometric analysis. See, e.g., FIG. 27.

[7] = system: cell lines including A549 lung, PC3 prostate, K1 and E89 Chinese hamster ovary (CHO), Ramos, DHL-4, and HF-1 B-cell lymphoma; assay: standard tetrazolide reduction proliferation assay; format: cell-based; details: ZnHPT formed in situ from HPT and zinc
Method: The proliferation of exponential phase cultures of A549 and PC3 cells is assessed by formazan reduction. In brief, A549 (2000 cells/well) or PC3 (4000 cells/well) cells are seeded on 96-well microtiter plates and allowed to adhere overnight. Stock solutions of ZnHPT or PEGZnHPT in medium are serial diluted in a ratio of 1:4 down the plate. Stock solutions of MGd or ZnOAc2 or 5% mannitol in ACS grade water are added and plates are incubated at 37° C. under a 5% CO2/95% air atmosphere. After 24 hours, medium is replaced with fresh medium. After 2 additional days, medium is exchanged for fresh medium (150 μL/well) supplemented with the tetrazolium dye, 3-(4,5-dimethylthiazol-2-yl)-2,5-diphenyltetrazolium bromide (MTT, Sigma Chemical, 0.5 mg/mL). Plates are incubated at 37° C. and viable cells measured. […] Alternatively cellular reduction within plateau phase cultures is measured after 24 hours of treatment as a measure of the cytotoxicity due to treatment.

thioredoxin reductase = details: cells co-treated with MGd and ZnHPT, previously found
Method: Thioredoxin reductase activity is assessed by measuring the rate of lipoate reduction. In brief, A549 or PC3 cells (10,000 cells/well) are plated on 96-well plates and allowed to adhere overnight and grow two additional days until confluent. Cells are treated with ZnHPT, PEGZnHPT, MGd, zinc, or 5% mannitol as above for 4 hours. Medium is removed, cells are washed with Hanks Balanced Salt Solution (HBSS), and a solution of 5 mM lipoic acid and 1 mM 5,5′-dithiobis(2-nitrobenzoic acid) in HBSS (100 μL/well) is added. Plates are incubated at ambient temperature in the dark. At chosen time intervals, plate absorbance is measured at 405-650 nm. Plate absorbances are normalized to wells containing neither exogenous zinc nor texaphyrin complex to allow plate-to-plate comparison.

[8] = cited from earlier work
cancer cells [9] = details: reported; cited from earlier work

Compound: 2-thiol-5-((2-(2-methoxyethoxy)ethoxy)methyl)pyridine-N-oxide, Zn complex [5-PEG-[2]-ZnHPT]
- anticancer activity (tumor regrowth) as compared to control vehicle ([1]; intravenous 100 μmol/kg q.d.×2 and q.d.×4, formulated in 5% mannitol, FIG. 30): significant anticancer activity

Compound: 2-thiol-5-((2-methoxyethoxy)methyl)pyridine-N-oxide, Zn complex [5-PEG-[1]-ZnHPT]
- anticancer activity (tumor regrowth) as compared to control vehicle [2]: significant anticancer activity

Compound: COCCOCCOCCOCc1ccc([S-])[n+]([O-])c1.COCCOCCOCCOCc1ccc([S-])[n+]([O-])c1.[Zn+2] [5-PEG-[3]-ZnHPT, 2-thiol-5-((2-(2-(2-methoxyethoxy)ethoxy)ethoxy)methyl)pyridine-N-oxide, Zn complex]
- anticancer activity (tumor regrowth) ([3]; in combination with MGd): significant anticancer activity
- anticancer activity (tumor regrowth) ([3]; without MGd): significant anticancer activity
- anticancer activity (tumor regrowth) ([1]; FIG. 29): significant anticancer activity
- maximum tested without evidence of toxicity [4]: ≥ 120 µmol/kg

Compound: On1ccccc1=S [HPT]
- logKβ2 [5]: 5.4

Compound: CC(=O)[O-].CC(=O)[O-].CCc1c(CC)c2cc3nc(cnc4cc(OCCOCCOCCOC)c(OCCOCCOCCOC)cc4ncc4nc(cc1[n-]2)C(CCCO)=C4C)C(C)=C3CCCO.O.[Gd+3] [MGd, motexafin gadolinium]
- intracellular free zinc (cancer cells [6]): increased intracellular free zinc

Compound: On1ccccc1=S [ZnHPT, 1-hydroxypyridine-2-thione]
- inhibition of proliferation [7]: inhibits proliferation in a dose dependent manner
- inhibition of thioredoxin reductase (thioredoxin reductase): synergistic inhibition
- bioavailability ([8]; oral, typically formulated as a suspension in vegetable oil): poorly bioavailable
- toxicity on oral administration ([8]; orally administered to laboratory animals): not found to be particularly toxic
- growth of cancer cells in culture (cancer cells [9]): inhibit the growth of cancer cells in culture

Compound: Zinquin
- logKβ2 [5]: ca. 18
